Results published in ChEMBL document CHEMBL1201862, “PubChem BioAssay data set” (2004).
Activity calls are given as the source filed them.

Experiments:
[1] = viability inhibitors of stage V gametocytes – luminescence, dose response (AID 1117278); type: functional, cell-based;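 also: gametocytes exposed to compound for 24 hours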
[2] = viability loss in human Jurkat cells – cell-based, luminescence, cytotoxicity control for P. falciparum gametocyte viability project, dose response (AID 1117277); type: functional;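 also: potency reflects loss of cellular ATP meaning fewer viable cells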
[3] = IC50 of Artemis nuclease activity blockers – biochemical, fluorescence intensity, dose response (AID 720701); type: functional;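 also: Artemis endonuclease enzyme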
Cytochrome P450 3A4 = Cytochrome P450 3A4 (Homo sapiens, UniProt P08684);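 also: CYP3A4 tested as one member of a cytochrome P450 panel screen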
Cytochrome P450 2D6 = Cytochrome P450 2D6 (Homo sapiens, UniProt P10635);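 also: CYP2D6 member of a cytochrome P450 panel assay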
Cytochrome P450 2C19 = Cytochrome P450 2C19 (Homo sapiens, UniProt P33261); experiment: Cytochrome panel assay with activity outcomes. Panel member name: p450-cyp2c19 Compounds with AC50 equal or less than 10 uM are considered active; type: functional
[4] = biological target: Glutathione-S-transferase (Schistosoma japonicum, UniProt Q26513); experiment: GST-antibody interaction or FRET quenching – biochemical, TR-FRET, artefact control for Vif-APOBEC3G degradation inhibitor project, dose response (AID 1117362); type: functional
[5] = biological target: Voltage-gated inwardly rectifying potassium channel KCNH2 (Homo sapiens, UniProt Q12809); experiment: concentration-dependent hERG rescue from blockers – cell-based, thallium flux, dose response (AID 2121); type: ADME
[6] = biological target: T1, Low molecular weight phosphotyrosine protein phosphatase (Homo sapiens, UniProt P24666); experiment: inhibition of LMPTP-A enzymatic activity – biochemical, OMFP substrate, fluorescence intensity, set 2, dose response (AID 743307); type: functional
T1 sequence (P24666 whole entry): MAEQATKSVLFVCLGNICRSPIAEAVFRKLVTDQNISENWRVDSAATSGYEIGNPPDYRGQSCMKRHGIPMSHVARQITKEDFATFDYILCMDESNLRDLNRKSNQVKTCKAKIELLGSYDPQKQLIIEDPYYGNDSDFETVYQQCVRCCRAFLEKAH

[7] = biological target: T1, Low molecular weight phosphotyrosine protein phosphatase; experiment: inhibition of human LMPTP enzyme activity – biochemical, absorbance, pNPP substrate, LMPTP-A isoform, set 2, orthogonal assay, dose response (AID 743308); type: functional
[8] = biological target: RNA-editing ligase 1, mitochondrial (Trypanosoma brucei brucei, UniProt P86926); experiment: inhibition of trypanosome RNA editing ligase – biochemical, fluorescence, Trypanosoma brucei, dose response (AID 1117295); type: functional
[9] = biological target: T2, Oxysterols receptor LXR-beta (Homo sapiens, UniProt P55055); experiment: LXR agonists, Gal4 luciferase reporter, dose response, counter-screen for ssDAF-12 agonist project, cell-based, luminescence, HEK293, S. stercoralis campaign (AID 720737); type: functional; details: read-out: IC50 (the source's name)
T2 sequence (P55055 whole entry): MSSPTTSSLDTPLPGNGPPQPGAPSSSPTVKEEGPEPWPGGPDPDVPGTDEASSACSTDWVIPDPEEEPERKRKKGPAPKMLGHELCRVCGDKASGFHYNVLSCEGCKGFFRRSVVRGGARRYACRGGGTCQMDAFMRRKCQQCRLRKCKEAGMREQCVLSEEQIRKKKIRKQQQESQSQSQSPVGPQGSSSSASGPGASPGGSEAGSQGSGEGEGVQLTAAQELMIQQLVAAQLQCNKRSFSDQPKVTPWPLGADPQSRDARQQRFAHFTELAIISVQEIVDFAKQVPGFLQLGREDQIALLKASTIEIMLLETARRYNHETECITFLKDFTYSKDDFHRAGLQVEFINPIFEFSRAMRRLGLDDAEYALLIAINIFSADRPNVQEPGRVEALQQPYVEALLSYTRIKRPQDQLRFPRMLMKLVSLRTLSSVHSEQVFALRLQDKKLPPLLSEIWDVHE

Caspase-9 = Caspase-9 (Homo sapiens, UniProt P55211); experiment: inhibitors of purified CASP9 protease – biochemical, fluorescence, plate reader, cherry-picked samples, selectivity assay for caspase-6 inhibitor project, dose response (AID 743293)
[10] = biological target: T3, Mannose-6-phosphate isomerase (Homo sapiens, UniProt P34949); experiment: MPI inhibition at elevated mannose 6-phosphate – biochemical, fluorescence intensity, high mannose 6-phosphate, primary screen (AID 1220)
T3 sequence (P34949 whole entry): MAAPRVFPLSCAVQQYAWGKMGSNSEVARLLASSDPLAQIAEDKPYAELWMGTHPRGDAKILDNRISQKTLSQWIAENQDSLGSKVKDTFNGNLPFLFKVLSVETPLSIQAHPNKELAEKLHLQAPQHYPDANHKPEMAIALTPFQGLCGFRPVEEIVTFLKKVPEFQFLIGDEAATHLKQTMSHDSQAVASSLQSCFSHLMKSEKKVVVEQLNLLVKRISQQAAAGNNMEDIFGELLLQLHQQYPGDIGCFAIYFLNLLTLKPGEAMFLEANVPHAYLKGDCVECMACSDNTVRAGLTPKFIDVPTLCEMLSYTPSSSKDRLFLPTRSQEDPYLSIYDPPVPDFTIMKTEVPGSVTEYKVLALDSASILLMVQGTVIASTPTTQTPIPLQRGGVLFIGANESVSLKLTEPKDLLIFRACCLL

Caspase-6 = biological target: T4, Caspase-6 (Homo sapiens, UniProt P55212); experiment: inhibition of CASP6 peptide cleavage – biochemical, VEID-R110 fluorescence, cherry-pick, dose response (AID 720632)
T4 sequence (P55212 whole entry): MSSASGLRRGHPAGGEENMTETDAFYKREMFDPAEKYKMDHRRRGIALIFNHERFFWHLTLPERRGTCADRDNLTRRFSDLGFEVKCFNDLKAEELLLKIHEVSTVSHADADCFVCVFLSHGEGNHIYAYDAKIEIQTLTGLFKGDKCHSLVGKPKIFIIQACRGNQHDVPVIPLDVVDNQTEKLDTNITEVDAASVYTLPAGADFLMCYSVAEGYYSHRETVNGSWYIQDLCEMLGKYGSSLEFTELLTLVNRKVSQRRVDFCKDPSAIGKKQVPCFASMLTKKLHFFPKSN

Caspase-8 = Caspase-8 (Homo sapiens, UniProt Q14790); experiment: inhibitors of purified CASP8 protease – biochemical, Z-IETD-R110 fluorescence, cherry-picked samples, selectivity assay for caspase-6 inhibitor project, dose response (AID 743294)
Protein RecA = biological target: T5, Protein RecA (Mycobacterium tuberculosis, UniProt P9WHJ3); experiment: Fluorescence Cell-Free Homogeneous Dose Retest to Identify Inhibitors of RecA-Intein Splicing Activity. [Related pubchem assays (depositor defined):AID2097, AID2223, AID489010, AID492950]; type: functional
T5 sequence (P9WHJ3 whole entry): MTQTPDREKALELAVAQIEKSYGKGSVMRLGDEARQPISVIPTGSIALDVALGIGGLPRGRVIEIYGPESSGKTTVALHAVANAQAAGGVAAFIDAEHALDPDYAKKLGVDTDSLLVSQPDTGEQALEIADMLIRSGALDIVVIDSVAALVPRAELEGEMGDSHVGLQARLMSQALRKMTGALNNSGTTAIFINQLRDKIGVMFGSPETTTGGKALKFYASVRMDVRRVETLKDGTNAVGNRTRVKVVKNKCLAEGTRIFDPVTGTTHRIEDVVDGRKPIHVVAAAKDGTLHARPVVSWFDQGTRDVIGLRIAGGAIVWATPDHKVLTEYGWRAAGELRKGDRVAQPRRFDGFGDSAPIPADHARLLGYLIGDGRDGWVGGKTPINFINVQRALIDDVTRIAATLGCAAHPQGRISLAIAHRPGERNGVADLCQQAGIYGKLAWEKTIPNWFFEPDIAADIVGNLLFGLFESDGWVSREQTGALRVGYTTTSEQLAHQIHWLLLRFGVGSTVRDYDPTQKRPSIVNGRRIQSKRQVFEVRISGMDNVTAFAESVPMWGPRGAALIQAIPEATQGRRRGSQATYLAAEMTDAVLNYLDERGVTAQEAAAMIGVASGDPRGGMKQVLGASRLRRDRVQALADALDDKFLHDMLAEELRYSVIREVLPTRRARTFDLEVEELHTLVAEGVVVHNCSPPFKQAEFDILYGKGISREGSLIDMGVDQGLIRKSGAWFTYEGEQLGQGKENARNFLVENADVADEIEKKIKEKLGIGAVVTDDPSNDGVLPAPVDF

[11] = Luminescence-based cell-based high throughput dose response assay to identify activators of the DAF-12 from the parasite S. stercoralis (ssDAF-12).; type: functional
[12] = biological target: T6, Replicative DNA helicase DnaB (Mycobacterium tuberculosis, UniProt P9WMR3); experiment: DnaB intein splicing inhibitors, dose response, biochemical, cell-free fluorescence (AID 449749); type: functional
T6 sequence (P9WMR3 whole entry): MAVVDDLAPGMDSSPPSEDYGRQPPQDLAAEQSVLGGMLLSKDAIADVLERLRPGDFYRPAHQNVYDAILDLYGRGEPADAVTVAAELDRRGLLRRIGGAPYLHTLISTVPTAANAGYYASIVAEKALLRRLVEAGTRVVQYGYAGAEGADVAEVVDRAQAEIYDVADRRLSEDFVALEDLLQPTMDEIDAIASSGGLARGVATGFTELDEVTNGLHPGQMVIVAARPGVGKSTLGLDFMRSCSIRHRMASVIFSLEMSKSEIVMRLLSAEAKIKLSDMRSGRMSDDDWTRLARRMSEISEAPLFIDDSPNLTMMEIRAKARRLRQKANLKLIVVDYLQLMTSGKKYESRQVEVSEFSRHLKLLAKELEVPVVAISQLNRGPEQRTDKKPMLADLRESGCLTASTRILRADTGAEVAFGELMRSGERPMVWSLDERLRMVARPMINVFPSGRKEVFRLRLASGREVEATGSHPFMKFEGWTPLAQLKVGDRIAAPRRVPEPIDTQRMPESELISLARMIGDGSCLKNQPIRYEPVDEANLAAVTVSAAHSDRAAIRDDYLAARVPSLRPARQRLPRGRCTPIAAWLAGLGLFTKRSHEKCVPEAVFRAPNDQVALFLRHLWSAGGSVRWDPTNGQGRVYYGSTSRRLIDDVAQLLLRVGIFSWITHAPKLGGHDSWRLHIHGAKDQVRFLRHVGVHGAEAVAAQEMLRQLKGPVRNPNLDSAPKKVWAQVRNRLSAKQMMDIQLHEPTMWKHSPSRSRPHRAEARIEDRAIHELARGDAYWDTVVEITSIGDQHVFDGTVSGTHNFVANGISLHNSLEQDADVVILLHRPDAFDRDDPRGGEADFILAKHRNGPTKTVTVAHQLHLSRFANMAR

[13] = biological target: FAD-linked sulfhydryl oxidase ALR (Homo sapiens, UniProt P55789); experiment: ALR-catalysed DTT oxidation blockers – biochemical, H2O2 detection, luminescence, cherry-pick, dose response (AID 493248)
[14] = HIV-1 Vif–A3G interaction blockers – biochemical, TR-FRET, GST-Vif 1-94, biotin-A3G peptide, dose response retest, primary screen (AID 1117319); type: functional;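 also: TR-FRET signal of purified GST-Vif binding a biotinylated A3G peptide; inhibitors lower the FRET signal by blocking Vif and A3G binding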
[15] = biological target: T7, Rac GTPase-activating protein 1 (Homo sapiens, UniProt Q9H0H5); experiment: blockers of MgcRacGAP-driven Rac1 GTP hydrolysis – biochemical, ADP Hunter fluorescence, primary and confirmatory, confirmation (AID 624330); type: functional
T7 sequence (Q9H0H5 whole entry): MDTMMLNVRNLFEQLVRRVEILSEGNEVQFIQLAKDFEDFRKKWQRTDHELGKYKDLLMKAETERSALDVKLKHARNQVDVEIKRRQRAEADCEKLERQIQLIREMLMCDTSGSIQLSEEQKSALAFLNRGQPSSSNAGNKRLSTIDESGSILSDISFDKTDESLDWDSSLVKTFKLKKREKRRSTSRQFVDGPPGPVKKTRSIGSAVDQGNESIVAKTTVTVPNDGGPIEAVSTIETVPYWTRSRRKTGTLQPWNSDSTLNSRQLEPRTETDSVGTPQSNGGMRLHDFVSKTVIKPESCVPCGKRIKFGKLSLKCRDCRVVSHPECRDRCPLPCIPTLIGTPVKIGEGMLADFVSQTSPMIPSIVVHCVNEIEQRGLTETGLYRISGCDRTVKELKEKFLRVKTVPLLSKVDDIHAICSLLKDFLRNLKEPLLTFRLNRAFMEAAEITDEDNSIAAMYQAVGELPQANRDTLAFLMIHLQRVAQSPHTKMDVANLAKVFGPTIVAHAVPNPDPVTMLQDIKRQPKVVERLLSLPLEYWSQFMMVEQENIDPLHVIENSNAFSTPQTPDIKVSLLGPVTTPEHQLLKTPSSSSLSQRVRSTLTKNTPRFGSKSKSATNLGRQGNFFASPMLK

Chain of RNA-editing ligase 1, mitochondrial (P86926 whole entry, the tested form may be a part): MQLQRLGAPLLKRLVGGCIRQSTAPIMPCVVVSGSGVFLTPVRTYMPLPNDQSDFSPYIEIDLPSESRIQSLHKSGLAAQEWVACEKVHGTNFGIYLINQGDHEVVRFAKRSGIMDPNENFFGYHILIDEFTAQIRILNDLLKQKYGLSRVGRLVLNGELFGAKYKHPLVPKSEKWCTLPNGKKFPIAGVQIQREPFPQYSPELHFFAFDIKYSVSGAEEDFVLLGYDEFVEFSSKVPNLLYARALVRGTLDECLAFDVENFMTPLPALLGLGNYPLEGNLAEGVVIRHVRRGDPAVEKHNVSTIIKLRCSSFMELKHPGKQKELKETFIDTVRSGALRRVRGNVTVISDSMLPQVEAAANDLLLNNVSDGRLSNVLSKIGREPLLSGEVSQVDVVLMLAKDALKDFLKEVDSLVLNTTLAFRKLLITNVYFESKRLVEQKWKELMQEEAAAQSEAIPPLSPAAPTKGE
Chain of Voltage-gated inwardly rectifying potassium channel KCNH2 (Q12809 whole entry): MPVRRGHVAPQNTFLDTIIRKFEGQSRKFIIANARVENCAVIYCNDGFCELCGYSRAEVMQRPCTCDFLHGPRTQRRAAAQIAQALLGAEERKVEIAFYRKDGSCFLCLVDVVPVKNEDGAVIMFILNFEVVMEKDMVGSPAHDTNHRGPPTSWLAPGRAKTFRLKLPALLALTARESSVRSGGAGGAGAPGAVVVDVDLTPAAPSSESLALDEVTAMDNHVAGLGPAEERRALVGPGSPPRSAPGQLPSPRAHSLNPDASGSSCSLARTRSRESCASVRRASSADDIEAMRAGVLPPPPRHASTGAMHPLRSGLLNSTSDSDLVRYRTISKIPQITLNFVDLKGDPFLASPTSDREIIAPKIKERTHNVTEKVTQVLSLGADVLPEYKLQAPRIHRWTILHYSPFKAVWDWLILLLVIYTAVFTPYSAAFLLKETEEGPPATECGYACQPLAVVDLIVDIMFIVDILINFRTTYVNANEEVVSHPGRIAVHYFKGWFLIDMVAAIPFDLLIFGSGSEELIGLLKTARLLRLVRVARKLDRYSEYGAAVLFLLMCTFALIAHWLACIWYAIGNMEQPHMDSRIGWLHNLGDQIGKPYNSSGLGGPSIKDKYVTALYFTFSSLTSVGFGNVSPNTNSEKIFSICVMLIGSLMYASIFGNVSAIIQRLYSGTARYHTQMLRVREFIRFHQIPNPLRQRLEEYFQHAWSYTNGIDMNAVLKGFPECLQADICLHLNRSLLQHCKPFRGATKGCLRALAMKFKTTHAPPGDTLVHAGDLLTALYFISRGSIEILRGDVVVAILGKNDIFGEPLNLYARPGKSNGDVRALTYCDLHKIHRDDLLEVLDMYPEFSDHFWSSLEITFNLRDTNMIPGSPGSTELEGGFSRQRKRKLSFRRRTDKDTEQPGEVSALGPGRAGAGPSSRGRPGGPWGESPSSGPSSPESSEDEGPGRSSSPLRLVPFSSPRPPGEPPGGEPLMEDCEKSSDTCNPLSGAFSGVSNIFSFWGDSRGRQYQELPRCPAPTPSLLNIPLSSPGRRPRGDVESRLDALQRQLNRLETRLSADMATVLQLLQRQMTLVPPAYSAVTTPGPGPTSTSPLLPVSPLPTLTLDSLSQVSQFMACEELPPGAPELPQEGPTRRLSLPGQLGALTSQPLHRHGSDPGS
Chain of Glutathione-S-transferase (Q26513 whole entry): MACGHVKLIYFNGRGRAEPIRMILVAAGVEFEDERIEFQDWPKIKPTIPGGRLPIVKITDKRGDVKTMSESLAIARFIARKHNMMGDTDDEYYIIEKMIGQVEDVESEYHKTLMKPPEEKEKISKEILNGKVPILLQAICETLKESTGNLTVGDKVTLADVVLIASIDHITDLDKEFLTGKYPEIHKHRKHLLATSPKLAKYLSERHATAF
Chain of Caspase-9 (P55211 1-315 limits assumed): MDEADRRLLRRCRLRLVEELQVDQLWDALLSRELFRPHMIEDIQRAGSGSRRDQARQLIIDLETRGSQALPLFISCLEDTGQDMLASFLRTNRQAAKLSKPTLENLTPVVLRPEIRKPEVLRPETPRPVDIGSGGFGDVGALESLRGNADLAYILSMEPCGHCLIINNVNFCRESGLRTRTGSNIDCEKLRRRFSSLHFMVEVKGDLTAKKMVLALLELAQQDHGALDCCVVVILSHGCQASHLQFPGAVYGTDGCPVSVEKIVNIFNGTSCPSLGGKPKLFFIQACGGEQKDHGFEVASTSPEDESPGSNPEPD
Chain of Caspase-9 (P55211 331-416 limits assumed): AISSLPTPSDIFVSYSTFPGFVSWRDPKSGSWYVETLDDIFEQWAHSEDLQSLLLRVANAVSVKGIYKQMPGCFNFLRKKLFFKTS
Chain of Cytochrome P450 2D6 (P10635 whole entry): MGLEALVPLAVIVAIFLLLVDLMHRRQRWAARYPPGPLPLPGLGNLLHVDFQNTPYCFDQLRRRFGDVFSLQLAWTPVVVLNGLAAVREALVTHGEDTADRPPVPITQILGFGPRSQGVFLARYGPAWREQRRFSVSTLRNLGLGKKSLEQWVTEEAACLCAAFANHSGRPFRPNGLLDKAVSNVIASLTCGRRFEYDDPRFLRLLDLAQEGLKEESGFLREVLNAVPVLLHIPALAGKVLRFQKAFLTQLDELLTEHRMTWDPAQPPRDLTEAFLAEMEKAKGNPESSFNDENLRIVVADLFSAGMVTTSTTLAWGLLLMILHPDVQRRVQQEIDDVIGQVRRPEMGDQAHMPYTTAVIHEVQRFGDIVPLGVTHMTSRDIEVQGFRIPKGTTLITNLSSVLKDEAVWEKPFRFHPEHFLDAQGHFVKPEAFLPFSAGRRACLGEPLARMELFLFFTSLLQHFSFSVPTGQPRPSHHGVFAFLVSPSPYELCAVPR
Chain of FAD-linked sulfhydryl oxidase ALR (P55789 whole entry): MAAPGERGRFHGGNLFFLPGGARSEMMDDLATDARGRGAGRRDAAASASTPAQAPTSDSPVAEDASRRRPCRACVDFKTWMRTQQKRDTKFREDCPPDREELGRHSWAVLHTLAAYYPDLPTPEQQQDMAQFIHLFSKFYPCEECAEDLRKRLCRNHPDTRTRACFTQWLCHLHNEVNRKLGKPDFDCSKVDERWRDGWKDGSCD
Chain of Caspase-8 (Q14790 217-374 limits assumed): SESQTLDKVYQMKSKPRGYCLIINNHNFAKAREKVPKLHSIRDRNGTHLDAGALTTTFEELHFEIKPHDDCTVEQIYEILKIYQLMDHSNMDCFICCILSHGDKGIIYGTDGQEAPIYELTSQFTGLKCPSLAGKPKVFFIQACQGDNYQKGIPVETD
Chain of Caspase-8 (Q14790 385-479 limits assumed): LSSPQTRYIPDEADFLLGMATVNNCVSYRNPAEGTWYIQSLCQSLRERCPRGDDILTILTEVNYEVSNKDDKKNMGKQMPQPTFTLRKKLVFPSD
Chain of Cytochrome P450 3A4 (P08684 whole entry): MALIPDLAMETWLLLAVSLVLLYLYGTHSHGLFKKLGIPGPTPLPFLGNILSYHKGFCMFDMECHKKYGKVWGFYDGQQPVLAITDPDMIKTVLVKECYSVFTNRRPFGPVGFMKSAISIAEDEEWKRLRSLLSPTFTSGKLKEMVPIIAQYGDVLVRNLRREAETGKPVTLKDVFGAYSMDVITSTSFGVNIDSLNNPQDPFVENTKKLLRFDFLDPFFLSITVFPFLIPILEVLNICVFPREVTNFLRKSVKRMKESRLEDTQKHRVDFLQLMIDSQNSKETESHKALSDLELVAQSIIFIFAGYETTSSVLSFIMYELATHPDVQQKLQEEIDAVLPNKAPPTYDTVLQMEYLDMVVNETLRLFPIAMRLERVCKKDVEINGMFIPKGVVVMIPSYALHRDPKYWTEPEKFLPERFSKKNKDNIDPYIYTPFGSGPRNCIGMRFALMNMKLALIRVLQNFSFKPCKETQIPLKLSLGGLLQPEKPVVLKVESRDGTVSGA
Chain of Cytochrome P450 2C19 (P33261 whole entry): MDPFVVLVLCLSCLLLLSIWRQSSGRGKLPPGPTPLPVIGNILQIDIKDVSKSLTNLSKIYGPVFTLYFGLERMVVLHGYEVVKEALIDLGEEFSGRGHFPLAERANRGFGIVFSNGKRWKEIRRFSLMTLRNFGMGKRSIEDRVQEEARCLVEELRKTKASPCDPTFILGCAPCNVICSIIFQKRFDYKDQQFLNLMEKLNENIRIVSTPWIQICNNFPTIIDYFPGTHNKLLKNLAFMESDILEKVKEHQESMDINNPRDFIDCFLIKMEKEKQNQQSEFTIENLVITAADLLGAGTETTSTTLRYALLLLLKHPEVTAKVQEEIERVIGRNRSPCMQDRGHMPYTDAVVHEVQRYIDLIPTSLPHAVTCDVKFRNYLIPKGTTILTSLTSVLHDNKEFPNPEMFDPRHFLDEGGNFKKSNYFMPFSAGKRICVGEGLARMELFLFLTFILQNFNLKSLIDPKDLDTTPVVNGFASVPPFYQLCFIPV

Compound: O=C(Nc1ccc(S(=O)(=O)N2CCCC2)cc1)C1CC(=O)N(c2ccccc2)C1 (stereo not drawn)
- IC50 [1]: > 109 µM (inactive)
- IC50 [2]: > 83.3 µM (inactive)

Compound: Cc1cc(C)n(-c2nc(NCC(C)O)c3c4c(sc3n2)CCCC4)n1 (stereo not drawn)
- IC50 [3]: 15 µM (active)

Compound: C=CCn1c(C)c(C(C)=O)c(N2CCN(c3ccccc3)CC2)nc1=S
- AC50 (Cytochrome P450 3A4): 25.1 µM (inconclusive)
- AC50 (Cytochrome P450 2D6): 22.4 µM (inconclusive)
- AC50 (Cytochrome P450 2C19): 5.62 µM (inconclusive)
- IC50 [4]: 19.8 µM (active)

Compound: COc1ccc(OC)c(NC(=O)C(=O)NNC(=O)c2cccs2)c1
- EC50 [5]: 3.5 µM (active)

Compound: Clc1cccc(-c2cc(NCCCN3CCCCC3)c3ccccc3n2)c1
- IC50 [6]: 1.12 µM (active)
- IC50 [7]: 1.85 µM (active)

Compound: CC(C)CNc1nc(-c2ccccc2)nc2ccccc12
- IC50 [6]: 14.5 µM (active)
- IC50 [7]: 58.5 µM (inactive)

Compound: COC(=O)C1=C(C)N(Cc2ccc(C(F)(F)F)cc2)C(NCc2ccc3c(c2)OCO3)=NC1c1ccccc1C(F)(F)F (stereo not drawn)
- IC50 [8]: > 96.6 µM (inactive)

Compound: CCNC1=NC(c2ccccc2C(F)(F)F)C(C(=O)OC)=C(C)N1Cc1ccc(C(F)(F)F)cc1 (stereo not drawn)
- IC50 [8]: > 96.6 µM (inactive)

Compound: Nc1cc2nn(-c3ccccc3)nc2cc1Cl
- EC50 [9]: > 67.5 µM (inactive)
- AC50 (Caspase-9): 29.9 µM (active)
- IC50 [10]: > 50 µM (not active)
- AC50 (Caspase-6): 2 µM (active)
- AC50 (Caspase-8): 12.7 µM (active)
- EC50 (Protein RecA): 3.48 µM (active)
- IC50 [11]: > 67.5 µM (inactive)
- AC50 [12]: 16.5 µM (active)

Compound: COc1cc(/C=N/NC2=NC(=O)C(c3ccccc3)S2)ccc1O (stereo not drawn)
- AC50 [13]: 0.249 µM (active)
- IC50 [14]: > 100 µM (active)
- IC50 [15]: 44.3 µM (active)

Compound: CC(C)CSc1oc(-c2ccco2)nc1S(=O)(=O)c1ccccc1
- IC50 [1]: > 109 µM (inactive)
- IC50 [2]: > 83.3 µM (inactive)

Compound: O=C(NC(=S)Nc1cc(C(F)(F)F)ccc1N1CCOCC1)c1ccco1
- EC50 [5]: 4.72 µM (active)
